# Reference: ChEMBL document CHEMBL3286312, “Synthesis and structure-activity relationships of guaiane-type sesquiterpene lactone derivatives with respect to inhibiting NO production in lipopolysaccharide-induced RAW 264.7 macrophages” (Eur J Med Chem, 2014)
# Columns and labels:
# RAW264.7 [1] = test: Antiinflammatory activity against mouse RAW264.7 cells assessed as inhibition of LPS-induced NO production at 25 uM after 18 hrs by Griess method relative to control; assay type: functional; details: RAW264.7, 18 h
# [2] = Cytotoxicity against mouse RAW264.7 cells assessed as cell survival rate up to 25 uM after 18 hrs by MTT assay relative to control; assay type: cell-based; details: read-out: Survival
# RAW264.7 [3] = test: Cytotoxicity against mouse RAW264.7 cells assessed as reduction in cell survival rate after 18 hrs by MTT assay relative to control; assay type: cell-based; details: RAW264.7, 18 h
# RAW264.7 [4] = test: Antiinflammatory activity against mouse RAW264.7 cells assessed as inhibition of LPS-induced NO production at after 18 hrs by Griess method relative to control; assay type: functional, cell-based; details: RAW264.7, 18 h
Compound,inhibition at 25 µM (RAW264.7 [1]) [%],viability at 18 h [2] [%],IC50 (RAW264.7 [3]) [µM],IC50 (RAW264.7 [4]) [µM]
CC1=C2C(C[C@@H]1OC(=O)/C=C/c1ccc([N+](=O)[O-])cc1)[C@](C)(O)CC[C@H]1[C@H](C)C(=O)O[C@H]21 (stereo partly specified),45,92.5,–,–
CC(=O)O[C@]1(C)CC[C@H]2[C@H](C)C(=O)O[C@@H]2C2=C(C)C(=O)CC21 (stereo partly specified),6.9,100,–,–
CC(=O)O[C@]1(C)CC[C@H]2[C@H](C)C(=O)O[C@@H]2C2=C(C)[C@@H](O)CC21 (stereo partly specified),0,100,–,–
CC1=C2C(CC1=O)[C@](C)(O)CC[C@H]1[C@H](C)C(=O)O[C@H]21 (stereo partly specified),0,100,–,–
CC1=C2C(C[C@@H]1O)[C@](C)(O)CC[C@H]1[C@H](C)C(=O)O[C@H]21 (stereo partly specified),0,100,–,–
CC1=C2C(C[C@@H]1OC(=O)c1ccc(C)cc1)[C@](C)(O)CC[C@H]1[C@H](C)C(=O)O[C@H]21 (stereo partly specified),21.2,100,–,–
CCc1ccc(C(=O)O[C@H]2CC3C(=C2C)[C@H]2OC(=O)[C@@H](C)[C@@H]2CC[C@@]3(C)O)cc1 (stereo partly specified),26.3,85.2,–,–
CCCc1ccc(C(=O)O[C@H]2CC3C(=C2C)[C@H]2OC(=O)[C@@H](C)[C@@H]2CC[C@@]3(C)O)cc1 (stereo partly specified),30.6,73.4,–,–
CCCCc1ccc(C(=O)O[C@H]2CC3C(=C2C)[C@H]2OC(=O)[C@@H](C)[C@@H]2CC[C@@]3(C)O)cc1 (stereo partly specified),33.2,72.6,–,–
CCCCCc1ccc(C(=O)O[C@H]2CC3C(=C2C)[C@H]2OC(=O)[C@@H](C)[C@@H]2CC[C@@]3(C)O)cc1 (stereo partly specified),29.8,79.3,–,–
CC1=C2C(C[C@@H]1OC(=O)c1ccc(C(C)C)cc1)[C@](C)(O)CC[C@H]1[C@H](C)C(=O)O[C@H]21 (stereo partly specified),53.3,74.7,–,–
CC1=C2C(C[C@@H]1OC(=O)c1ccc(C(C)(C)C)cc1)[C@](C)(O)CC[C@H]1[C@H](C)C(=O)O[C@H]21 (stereo partly specified),76.3,52.1,29.1,14.8
COc1ccc(C(=O)O[C@H]2CC3C(=C2C)[C@H]2OC(=O)[C@@H](C)[C@@H]2CC[C@@]3(C)O)cc1 (stereo partly specified),6.6,98,–,–
CC1=C2C(C[C@@H]1OC(=O)c1ccc(OC(F)(F)F)cc1)[C@](C)(O)CC[C@H]1[C@H](C)C(=O)O[C@H]21 (stereo partly specified),30.6,97.5,–,–
CC1=C2C(C[C@@H]1OC(=O)c1ccc(C(F)(F)F)cc1)[C@](C)(O)CC[C@H]1[C@H](C)C(=O)O[C@H]21 (stereo partly specified),20.4,100,–,–
CC1=C2C(C[C@@H]1OC(=O)c1ccc([N+](=O)[O-])cc1)[C@](C)(O)CC[C@H]1[C@H](C)C(=O)O[C@H]21 (stereo partly specified),1.8,100,–,–
CC1=C2C(C[C@@H]1OC(=O)c1ccc(C#N)cc1)[C@](C)(O)CC[C@H]1[C@H](C)C(=O)O[C@H]21 (stereo partly specified),6.6,100,–,–
CC1=C2C(C[C@@H]1OC(=O)c1ccc(F)cc1)[C@](C)(O)CC[C@H]1[C@H](C)C(=O)O[C@H]21 (stereo partly specified),19.4,100,–,–
CC1=C2C(C[C@@H]1OC(=O)c1ccc(Cl)cc1)[C@](C)(O)CC[C@H]1[C@H](C)C(=O)O[C@H]21 (stereo partly specified),19.6,100,–,–
CC1=C2C(C[C@@H]1OC(=O)c1ccc(Br)cc1)[C@](C)(O)CC[C@H]1[C@H](C)C(=O)O[C@H]21 (stereo partly specified),28.1,98.1,–,–
CC1=C2C(C[C@@H]1OC(=O)c1ccc(I)cc1)[C@](C)(O)CC[C@H]1[C@H](C)C(=O)O[C@H]21 (stereo partly specified),46.5,93,–,–

Compound,inhibition at 25 µM (RAW264.7 [1]) [%],viability at 18 h [2] [%],IC50 (RAW264.7 [3]) [µM],IC50 (RAW264.7 [4]) [µM]
CC1=C2C(C[C@@H]1OC(=O)/C=C/c1ccc(C)cc1)[C@](C)(O)CC[C@H]1[C@H](C)C(=O)O[C@H]21 (stereo partly specified),58.8,100,76.5,29
CSc1ccc(/C=C/C(=O)O[C@H]2CC3C(=C2C)[C@H]2OC(=O)[C@@H](C)[C@@H]2CC[C@@]3(C)O)cc1 (stereo partly specified),67.4,100,> 100,27.2
COc1ccc(/C=C/C(=O)O[C@H]2CC3C(=C2C)[C@H]2OC(=O)[C@@H](C)[C@@H]2CC[C@@]3(C)O)cc1 (stereo partly specified),19.3,100,–,–
CCOc1ccc(/C=C/C(=O)O[C@H]2CC3C(=C2C)[C@H]2OC(=O)[C@@H](C)[C@@H]2CC[C@@]3(C)O)cc1 (stereo partly specified),26.9,35.6,–,–
CCCOc1ccc(/C=C/C(=O)O[C@H]2CC3C(=C2C)[C@H]2OC(=O)[C@@H](C)[C@@H]2CC[C@@]3(C)O)cc1 (stereo partly specified),19.3,43.1,–,–
CC1=C2C(C[C@@H]1OC(=O)/C=C/c1ccc(N(C)C)cc1)[C@](C)(O)CC[C@H]1[C@H](C)C(=O)O[C@H]21 (stereo partly specified),44.5,100,–,–
CC1=C2C(C[C@@H]1OC(=O)/C=C/c1ccc(F)cc1)[C@](C)(O)CC[C@H]1[C@H](C)C(=O)O[C@H]21 (stereo partly specified),31.6,100,–,–
CC1=C2C(C[C@@H]1OC(=O)/C=C/c1ccc(Cl)cc1)[C@](C)(O)CC[C@H]1[C@H](C)C(=O)O[C@H]21 (stereo partly specified),82,100,59.2,22.3
CC1=C2C(C[C@@H]1OC(=O)/C=C/c1ccc(Br)cc1)[C@](C)(O)CC[C@H]1[C@H](C)C(=O)O[C@H]21 (stereo partly specified),85.2,97.8,60.2,18.3
CC1=C2C(C[C@@H]1OC(=O)/C=C/c1ccc(C#N)cc1)[C@](C)(O)CC[C@H]1[C@H](C)C(=O)O[C@H]21 (stereo partly specified),31.4,100,–,–
CC1=C2C(C[C@@H]1OC(=O)/C=C/c1ccc(C(F)(F)F)cc1)[C@](C)(O)CC[C@H]1[C@H](C)C(=O)O[C@H]21 (stereo partly specified),75.9,100,54.9,17.4
CC1=C2C(C[C@@H]1OC(=O)c1cccs1)[C@](C)(O)CC[C@H]1[C@H](C)C(=O)O[C@H]21 (stereo partly specified),0,100,–,–
CC1=C2C(C[C@@H]1OC(=O)c1ccsc1)[C@](C)(O)CC[C@H]1[C@H](C)C(=O)O[C@H]21 (stereo partly specified),6.7,93.9,–,–
CC1=C2C(C[C@@H]1OC(=O)c1ccco1)[C@](C)(O)CC[C@H]1[C@H](C)C(=O)O[C@H]21 (stereo partly specified),2.2,100,–,–
CC1=C2C(C[C@@H]1OC(=O)c1ccccn1)[C@](C)(O)CC[C@H]1[C@H](C)C(=O)O[C@H]21 (stereo partly specified),0,100,–,–
CC1=C2C(C[C@@H]1OC(=O)c1cccnc1)[C@](C)(O)CC[C@H]1[C@H](C)C(=O)O[C@H]21 (stereo partly specified),6.1,86.9,–,–
CC1=C2C(C[C@@H]1OC(=O)c1ccncc1)[C@](C)(O)CC[C@H]1[C@H](C)C(=O)O[C@H]21 (stereo partly specified),2,100,–,–
CC1=C2C(C[C@@H]1OC(=O)c1cccc3ccccc13)[C@](C)(O)CC[C@H]1[C@H](C)C(=O)O[C@H]21 (stereo partly specified),79.6,67.4,7.52,6.98
CC1=C2C(C[C@@H]1OC(=O)c1ccc3ccccc3c1)[C@](C)(O)CC[C@H]1[C@H](C)C(=O)O[C@H]21 (stereo partly specified),68.8,100,89.4,25.7
CC1=C2C(C[C@@H]1OC(=O)c1ccc3ncccc3c1)[C@](C)(O)CC[C@H]1[C@H](C)C(=O)O[C@H]21 (stereo partly specified),23.2,100,–,–
N=C(N)NN [PIMAGEDINE],83.8,100,–,8.68
